Laboratory results taken from patent publication US9004752B2, “Method for evaluating the solubility of a crystalline substance in a polymer” (Abbvie, Inc., priority 2008, dated 2015).

Key:
[1] = DSC dissolution-endpoint method (Method I): solubility of a crystalline substance in a polymer; conditions: for solubility in PVP: by extrapolation
Method: In a typical procedure, 0.5-1 g of solute/polymer powder was milled at 10 Hz. Each cycle of milling was 2 min, followed by a 2 min cool-down. The cycle was repeated to achieve a desired milling time (16-60 min).
Standard and modulated differential scanning calorimetry (DSC) was conducted in hermetic aluminium pans using a TA Instruments DSC Q1000. 5-10 mg of the sample was packed into the pans. A pin hole was made in the lid to allow the escape of moisture. Standard DSC was performed at heating rates from 0.1 to 3° C./min. Modulated DSC was used to observe the glass transition of the amorphous phase at a heating rate of 2° C./min with the temperature modulating at ±0.5° C. every 60 second.
To further minimize the effect of slow dissolution on the measurement of equilibrium solubility, we measured Tend at several heating rates (FIG. 3) and obtained the Tend at zero heating rate by extrapolation (FIG. 4).
The larger the difference (Tend−Tg), the lower the viscosity of the solution in which D-mannitol completed its dissolution. […] For such systems, Tend changed rapidly and non-linearly with the heating rate, making the extrapolation to zero heating rate less certain. […] Despite this limitation the method enabled us to get sufficiently close to Tg to estimate the solubility of D-mannitol in PVP at Tg: by extrapolation. […] At 95° C., the saturated solution exists at the glass transition temperature.
As in the case of D-mannitol/PVP, cryomilling was used to prepare drug/polymer mixtures. […] As in the case of the D-mannitol/PVP, cryomilling facilitated the determination of dissolution endpoint.

[2] = assay type: physicochemical; conditions: 30% w/w in PVP, initially amorphous, yielded crystals
Method: To set up an aging experiment, the sample was added into an open DSC pan and heated up on a microscope hot-stage (Linkam THMS 600) to Tm+20° C. under vacuum. The application of vacuum removed air bubbles trapped in the viscous melt. The pan was then quenched to room temperature, sealed immediately, and aged in an oven of known temperature.
To verify the solubility of D-mannitol in PVP obtained with the DSC method (Method I), we used two other solubility-indicating methods (FIG. 7). In the first (Method II), D-mannitol was mixed with PVP at a concentration higher than predicted. The mixture was then aged to see whether the supersaturated solution indeed crystallized over time. We tracked three indicators of crystallization: (a) the glass transition temperature Tg of the mixture, which is expected to increase when D-mannitol is removed from its mixture with PVP (FIG. 5); (b) the appearance of new endotherms with aging which correspond to the dissolution of newly crystallized D-mannitol; and (c) new crystals observable by polarized light microscopy. Modulated DSC (MDSC) was used to measure Tg. In the second method (Method III), D-mannitol was mixed with PVP at high enough concentration so that D-mannitol rapidly crystallized. […]
For Method II, D-mannitol was mixed with PVP by cryogenic milling at 30% w/w. […] The mixture was analyzed by DSC at times ranging from a few days to 155 days. […]

OC[C@@H](O)[C@@H](O)[C@H](O)[C@H](O)CO [D-mannitol]
predicted solubility in PVP (Method I) ([1]; 105° C., temperature chosen for the validation tests): 15% | solubility in PVP ([1]; PVP K15, […]): 15 % w/w | solubility in PVP ([1]; PVP K15, at 95° C., […]): 10 % w/w | state of the 30% solution in PVP on aging [2]: supersaturated
